Reference: patent US10233182B2, “Substituted spirocyclic inhibitors of autotaxin” (X-Rx, Inc., priority 2014, dated 2019)
pIC50: −log10 of the molar value.

Target: Autotaxin (Homo sapiens (Human), UniProt Q13822)
Assay: Autotaxin LPC Cascade Assay
Assay type: biochemical
Conditions: Autotaxin 5 nM, LPC 100 μM, choline oxidase/HRP/Ampliflu Red fluorescence read-out, 2% DMSO, RT; read-out: IC50 ATX Activity
Method in brief: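 Choline liberated from LPC by autotaxin during 1 h, after a 10-min RT compound preincubation, was converted through choline oxidase/HRP to a fluorescent Ampliflu Red product.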

| SMILES | pIC50 |
| --- | --- |
| CC(C)[C@@H](NC(=O)c1cc(C2CC2)ccc1F)C(=O)N1CCC2(CC1)C(=O)N(C)C(=O)N2c1ccccc1 [Example 42, (R)-5-Cyclopropyl-2-fluoro-N-(3-methyl-1-(3-methyl-2,4-dioxo-1-phenyl-1,3,8-triazaspiro[4.5]decan-8-yl)-1-oxobutan-2-yl)benzamide] | > 6.30 |
| CCc1ccc(F)c(C(=O)N[C@@H](C(=O)N2CCC3(CC2)C(=O)N(CC#N)C(=O)N3c2ccc(OC)cc2)C(C)C)c1 [Example 5, (R)—N-(1-(3-(Cyanomethyl)-1-(4-methoxyphenyl)-2,4-dioxo-1,3,8-triazaspiro[4.5]decan-8-yl)-3-methyl-1-oxobutan-2-yl)-5-ethyl-2-fluorobenzamide] | > 6.30 |
| CC(C)[C@@H](NC(=O)c1cc(Cl)cc(Cl)c1)C(=O)N1CCC2(CC1)C(=O)N(C)C(=O)N2c1ccccc1 [Example 48, (R)-3,5-Dichloro-N-(3-methyl-1-(3-methyl-2,4-dioxo-1-phenyl-1,3,8-triazaspiro[4.5]decan-8-yl)-1-oxobutan-2-yl)benzamide] | > 6.30 |
| CC(C)[C@@H](NC(=O)c1cc(F)ccc1F)C(=O)N1CCC2(CC1)C(=O)N(C)C(=O)N2c1ccc2[nH]ncc2c1 [Example 66, (R)—N-(1-(1-(1H-Indazol-5-yl)-3-methyl-2,4-dioxo-1,3,8-triazaspiro[4.5]decan-8-yl)-3-methyl-1-oxobutan-2-yl)-2,5-difluorobenzamide] | 6.00 to 6.30 |
| CCc1cc(F)cc(C(=O)N[C@@H](C(=O)N2CCC3(CC2)C(=O)N(C)C(=O)N3c2ccccc2)[C@H](C)OC)c1 [Example 38, 3-Ethyl-5-fluoro-N-((2R,3S)-3-methoxy-1-(3-methyl-2,4-dioxo-1-phenyl-1,3,8-triazaspiro[4.5]decan-8-yl)-1-oxobutan-2-yl)benzamide] | ≤ 6.00 |
| CC(C)[C@@H](NC(=O)c1cc(Cl)ccc1Cl)C(=O)N1CCC2(CC1)C(=O)N(C)C(=O)N2c1ccccc1 [Example 36, (R)-2,5-Dichloro-N-(3-methyl-1-(3-methyl-2,4-dioxo-1-phenyl-1,3,8-triazaspiro[4.5]decan-8-yl)-1-oxobutan-2-yl)benzamide] | ≤ 6.00 |
| CC(C)[C@@H](NC(=O)c1cc(C(F)(F)F)ccc1F)C(=O)N1CCC2(CC1)C(=O)N(C)C(=O)N2c1ccc2oc(=O)[nH]c2c1 [Example 29, (R)-2-Fluoro-N-(3-methyl-1-(3-methyl-2,4-dioxo-1-(2-oxo-2,3-dihydrobenzo[d]oxazol-5-yl)-1,3,8-triazaspiro[4.5]decan-8-yl)-1-oxobutan-2-yl)-5-(trifluoromethyl)benzamide] | 6.00 to 6.30 |
| CCc1ccc(F)c(C(=O)N[C@@H](C(=O)N2CCC3(CC2)C(=O)N(C)CN3c2ccc(NC(C)=O)cc2)C(C)C)c1 [Example 172, (R)—N-(1-(1-(4-Acetamidophenyl)-3-methyl-4-oxo-1,3,8-triazaspiro[4.5]decan-8-yl)-3-methyl-1-oxobutan-2-yl)-5-ethyl-2-fluorobenzamide] | > 6.30 |
| CC(C)[C@@H](NC(=O)c1cc(C(F)(F)F)ccc1F)C(=O)N1CCC2(CC1)C(=O)N(C)C(=O)N2c1ccc2c(c1)OCO2 [Example 191, (R)—N-(1-(1-(Benzo[d][1,3]dioxol-5-yl)-3-methyl-2,4-dioxo-1,3,8-triazaspiro[4.5]decan-8-yl)-3-methyl-1-oxobutan-2-yl)-2-fluoro-5-(trifluoromethyl)benzamide] | > 6.30 |
| CC(C)[C@@H](NC(=O)c1cc(Cl)ccc1Cl)C(=O)N1CCC2(CC1)C(=O)N(C)C(=O)N2c1ccc2[nH]ncc2c1 [Example 65, (R)—N-(1-(1-(1H-Indazol-5-yl)-3-methyl-2,4-dioxo-1,3,8-triazaspiro[4.5]decan-8-yl)-3-methyl-1-oxobutan-2-yl)-2,5-dichlorobenzamide] | ≤ 6.00 |
| CC(C)[C@@H](NC(=O)c1cc(C(F)(F)F)ccc1F)C(=O)N1CCC2(CC1)C(=O)N(C)C(=O)N2C1CCCCC1 [Example 242, (R)—N-(1-(1-Cyclohexyl-3-methyl-2,4-dioxo-1,3,8-triazaspiro[4.5]decan-8-yl)-3-methyl-1-oxobutan-2-yl)-2-fluoro-5-(trifluoromethyl)benzamide] | > 6.30 |
| CC(C)[C@@H](NC(=O)c1cc(C(F)(F)F)ccc1F)C(=O)N1CCC2(CC1)C(=O)N(C)C(=O)N2c1ccc(C(F)(F)F)cc1 [Example 186, (R)-2-Fluoro-N-(3-methy-1-(3-methyl-2,4-dioxo-1-(4-(trifluoromethyl)phenyl)-1,3,8-triazaspiro[4.5]decan-8-yl)-1-oxobutan-2-yl)-5-(trifluoromethyl)benzamide] | > 6.30 |
| CC(C)[C@@H](NC(=O)c1cc(C(F)(F)F)ccc1F)C(=O)N1CCC2(CC1)C(=O)N(C)C(=O)N2Cc1ncccn1 [Example 111, (R)-2-Fluoro-N-(3-methyl-1-(3-methyl-2,4-dioxo-1-(pyrimidin-2-ylmethyl)-1,3,8-triazaspiro[4.5]decan-8-yl)-1-oxobutan-2-yl)-5-(trifluoromethyl)benzamide] | ≤ 6.00 |
| CN1C(=O)N(c2ccc3[nH]ncc3c2)C2(CCN(C(=O)[C@H](NC(=O)c3cc(C(F)(F)F)ccc3F)C3CCCC3)CC2)C1=O [Example 57, (R)—N-(2-(1-(1H-Indazol-5-yl)-3-methyl-2,4-dioxo-1,3,8-triazaspiro[4.5]decan-8-yl)-1-cyclopentyl-2-oxoethyl)-2-fluoro-5-(trifluoromethyl)benzamide] | > 6.30 |
| CC(C)[C@@H](NC(=O)c1cc(C(F)(F)F)ccc1F)C(=O)N1CCC2(CC1)C(=O)N(C)C(=O)N2CC1CCOCC1 [Example 79, (R)-2-Fluoro-N-(3-methyl-1-(3-methyl-2,4-dioxo-1-((tetrahydro-2H-pyran-4-yl)methyl)-1,3,8-triazaspiro[4.5]decan-8-yl)-1-oxobutan-2-yl)-5-(trifluoromethyl)benzamide] | 6.00 to 6.30 |
| Cc1cc(F)cc(C(=O)N[C@@H](C(=O)N2CCC3(CC2)C(=O)N(CC(=O)O)CN3c2ccccc2)C(C)C)c1 [Example 176, (R)-2-(8-(2-(3-Fluoro-5-methylbenzamido)-3-methylbutanoyl)-4-oxo-1-phenyl-1,3,8-triazaspiro[4.5]decan-3-yl)acetic Acid] | 6.00 to 6.30 |
| CC(C)[C@@H](NC(=O)c1cc(C(F)(F)F)ccc1Cl)C(=O)N1CCC2(CC1)C(=O)N(C)C(=O)N2c1ccc2[nH]ncc2c1 [Example 68, (R)—N-(1-(1-(1H-Indazol-5-yl)-3-methyl-2,4-dioxo-1,3,8-triazaspiro[4.5]decan-8-yl)-3-methyl-1-oxobutan-2-yl)-2-chloro-5-(trifluoromethyl)benzamide] | ≤ 6.00 |
| CC(=O)N1CC(CN2C(=O)N(C)C(=O)C23CCN(C(=O)[C@H](NC(=O)c2cc(C(F)(F)F)ccc2F)C(C)C)CC3)C1 [Example 121, (R)—N-(1-(1-((1-Acetylazetidin-3-yl)methyl)-3-methyl-2,4-dioxo-1,3,8-triazaspiro[4.5]decan-8-yl)-3-methyl-1-oxobutan-2-yl)-2-fluoro-5-(trifluoromethyl)benzamide] | ≤ 6.00 |
| CC(C)[C@@H](NC(=O)c1cc(C(F)(F)F)ccc1F)C(=O)N1CCC2(CC1)C(=O)N(C)C(=O)N2c1ccc(OCCO)cc1 [Example 84, (R)-2-Fluoro-N-(1-(1-(4-(2-hydroxyethoxy)phenyl)-3-methyl-2,4-dioxo-1,3,8-triazaspiro[4.5]decan-8-yl)-3-methyl-1-oxobutan-2-yl)-5-(trifluoromethyl)benzamide] | > 6.30 |
